Article PMC6325109, “The transcription factor STAT5 catalyzes Mannich ligation reactions yielding inhibitors of leukemic cell proliferation” (Nature Communications, 2019)
Where a chain is given by its changes, count along the chain named. Where no end group is shown, it is not given here. [ ]: non-standard residue; d: D form. pY = N[C@@H](Cc1ccc(OP(=O)(O)O)cc1)C(=O)O

B1: carboxyfluoresceine-labeled phosphotyrosine octapeptide 1 (peptide)
chain: G[pY]LSLPPW
modifications: not fully specified (N-terminus); also: carboxyfluorescein label, place not given here

Legend:
MBP-STAT5b-SH2 [1] = molecular target: T1, MBP-STAT5b-SH2 (Homo sapiens, UniProt P51692); assay: biochemical; set-up: fluorescence polarization competition with carboxyfluorescein-labelled phosphopeptide on MBP-STAT5b-SH2
T1 sequence (P51692 589-686 limits assumed): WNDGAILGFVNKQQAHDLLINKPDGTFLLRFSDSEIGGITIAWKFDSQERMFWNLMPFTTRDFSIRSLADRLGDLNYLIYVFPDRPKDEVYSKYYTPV
Procedure: 24 sealed with optical seal, shaken for 15 min, and centrifuged. Thermal scanning (20 to 95°C at 1°C/min) was performed using a real-time PCR setup (Light Cycler, Roche Diagnostics, Mannheim, Germany) and fluorescence intensity was measured after every 0.3 s. Curve fitting, melting temperature calculation and report generation on the raw data were performed using GraphPad Prism 5 software. Fluorescence polarization assays and screening Ca. 17000 compounds and fragments from the ChemBioNet library were tested in a fluorescence polarization (FP) assay to investigate their ability to bind to STAT5b-SH2 domain by displacing the fluorophore-labeled peptide 5-carboxyfluorescein-GY (PO3H2) LSLPPW-NH2 1. Purified compounds were tested in the same assay. The peptide purity was >95% and the assays were performed at room temperature. The final concentration of buffer components used was 10 mM HEPES (pH 7.5), 1 mM EDTA, 0.1% Igepal CA-630, 50 mM NaCl, and 5% DMSO and the final concentration of protein used was at 125 nM. The protein was first added to the black 384-well plate (Corning cat.CLS3676, Sigma Aldrich, Taufkirchen, Germany) followed by test compounds and fluorophore-labeled peptide. The plates were centrifuged, and measured using Safire2 well plate reader (Tecan, Crailsheim, Germany) after 15 min incubation at room temperature. For testing secondary site binding of primary hit fragments, the same assay was conducted in the presence of 4-formylphenyl phosphate 2 as described earlier. For specificity analysis, FP assay was conducted with 100 nM GST-tagged, full length human STAT3 protein (cat. S54-54G-50, SignalChem, Richmond, BC, Canada) and 10 nM fluorophore-labeled peptides (5-carboxyfluorescein-GY (PO3H2) LPQTV-NH2). […] Ligands with such high ligand efficiency are rather found for enzymatic binding pockets than for protein–protein interaction sites and thus fragment 3 was selected for further validation. Binding of 3 to STAT5b-SH2 was confirmed using the thermofluor assay[28],[29], a thermal shift assay (TSA), as an independent biophysical assay. Binding of fragment 3 augmented the melting point of STAT5 by ΔTm of 3 °C (Supplementary Figure 1). Potential binding modes of the phosphotyrosine 2 and the fragment hit 3 were scrutinized using a homology model of STAT5b derived from the crystal structure of STAT5a (PDB:1Y1U [10.2210/pdb1Y1U/pdb]) for molecular docking (Fig. 1b, c)[30]. The phosphotyrosine binding site in the STAT5-SH2 domain is shallow compared with the deeper binding pockets of PTP[31],[32], coordinating phenyl phosphate 2 by only two amino-acid residues, Arg618 and Ser622. As a result, the benzene ring of 2 is not buried in a cavity like in the case of PTPs but rather exposed to the solvent at the protein surface.

MBP-STAT5b-SH2 [2] = molecular target: T1, MBP-STAT5b-SH2; assay: fluorescence polarization competition with peptide […]; format: binding; conditions: […] MOPS pH […], room temperature; competitive
MBP-STAT5b-SH2 [3] = molecular target: T1, MBP-STAT5b-SH2; assay: as above; format: binding; conditions: […] MOPS pH […], room temperature; competitive; remark: listed apart in the source
MBP-STAT5b-SH2 [4] = molecular target: T2, MBP-STAT5b-SH2 (Homo sapiens, UniProt P51692, N642A); assay: as above; format: binding; conditions: […] MOPS pH […], room temperature; competitive
T2 sequence (P51692 589-686 N642A limits assumed): T1 sequence (P51692 589-686 limits assumed) with N54A

MBP-STAT5b-SH2 N642A = molecular target: T3, MBP-STAT5b-SH2 N642A (human, UniProt P51692 589-686, N642A); assay: fluorescence polarisation; MBP-STAT5b-SH2 with peptide 1 (10 nM), 50 mM MOPS buffer pH 7.4, room temperature, 20 µl; conditions: both partners purified
T3 construct: STAT5b, SH2 domain with N642A; Same construct as m1 apart from the mutation; also called STAT5b-N642A; mutant STAT5b-N642A; source: generated by site-directed mutagenesis
T3 sequence (looked up): T1 sequence (P51692 589-686 limits assumed) with N54A

[5] = molecular target: T4, STAT5b-SH2 domain fused to maltose-binding protein (MBP) (human, UniProt P51692 589-686); assay: as above; conditions: both partners purified
T4 construct: STAT5b, SH2 domain; also called MBP-STAT5b-SH2; MBP-STAT5b; source: recombinantly expressed
T4 sequence (looked up): T1 sequence (P51692 589-686 limits assumed)

| Molecule | Ki (MBP-STAT5b-SH2 [1]) | Ki (MBP-STAT5b-SH2 [2]) | also measured |
| --- | --- | --- | --- |
| O=Cc1ccc(OP(=O)(O)O)cc1 [compound 2, 4-formylphenyl phosphate] | > 2500 µM |  |  |
| O=C(Cn1cnnn1)Nc1nonc1C(=O)O [compound 5, 4-(2-(1H-tetrazol-1-yl)-acetamido)-1,2,5-oxadiazole-3-carboxylic acid] | > 2500 µM |  |  |
| O=C(O)c1nonc1NCn1cccn1 [compound 8, pyrazol-1-yl 8] |  | 122 ± 25 µM |  |
| O=C(O)c1nonc1NCn1cnnn1 [compound 10, 4-(Tetrazolyl-1-methylamino)-furazan-3-carboxylic acid] |  |  | IC50 (MBP-STAT5b-SH2 [3]): 1.5 µM; IC50 (MBP-STAT5b-SH2 [4]): 30 µM |
| O=C(O)c1nonc1NCn1nnnc1-c1ccccc1 [compound 11, 4-(5-phenyl-tetrazol-1-yl-methylamino)-furazane-3-carboxylate] |  | 1.4 µM |  |
| O=C(O)c1nonc1NCn1nnnc1-c1cccc(C(F)(F)F)c1 [compound 12, 5-(3-trifluoromethyl-phenyl)-12] |  | 0.9 µM |  |
| O=C(O)c1nonc1NCn1nnnc1-c1cccc(F)c1 [compound 13, 5-(3-fluorophenyl) 13] |  | 0.6 µM |  |
| c1nnn[nH]1 [compound 25, 1H-tetrazole] | > 2500 µM |  |  |
| c1ccc(Cc2nn[nH]n2)cc1 [compound 26, benzyl-tetrazole] | > 2500 µM |  |  |
| B1 |  |  | Kd (MBP-STAT5b-SH2 N642A): ~5 µM; Kd [5]: 0.055 µM |
